According to patent US9637473B2, “Acrylamide derivatives as antimalarial agents” (priority 2013, dated 2017):
Counter-ions that a name gives are not always drawn.

tested on: P. Falciparum NF54; test: Plasmodium falciparum in vitro assay ([3H]-hypoxanthine incorporation); assay type: cell-based; conditions: P. Falciparum NF54, erythrocytic stages in human red blood cells, 50% human serum
Outline: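 This in vitro antimalarial assay used P. falciparum erythrocytic stages cultured in human erythrocytes and measured [3H]-hypoxanthine incorporation. Radioactivity on the dried filters, placed in plastic foil with 10 mL scintillation fluid, was counted in a Betaplate liquid scintillation counter. Sigmoidal inhibition curves built in Microsoft Excel gave the IC50.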

SMILES	IC50 [nM]
CN(c1ccncc1)c1ccc(CN(C(=O)/C=C/c2ccc(C(F)(F)F)cc2)C2C[C@@H]3CN(C4CCCC4)C[C@@H]3C2)cc1 (single isomer, unassigned) [Example 66]	14

same assay, conditions: Plasmodium falciparum, Erythrocyte, P. Falciparum NF54, erythrocytic stages in human red blood cells, 50% human serum

SMILES	IC50 [nM]
CN(c1ccncc1)c1ccc(CN(C(=O)/C=C/c2ccccc2F)C2CCN(Cc3ccccc3)CC2)cc1 [Example 157, (E)-N-(1-Benzyl-piperidin-4-yl)-3-(2-fluoro-phenyl)-N-[4-(methyl-pyridin-4-yl-amino)-benzyl]-acrylamide]	190
CN(c1ccncc1)c1ccc(CN(C(=O)/C=C/c2ccc(C(F)(F)F)cc2)C2CCN(Cc3ccccn3)CC2)cc1 [Example 22, (E)-N-[4-(Methyl-pyridin-4-yl-amino)-benzyl]-N-(1-pyridin-2-ylmethyl-piperidin-4-yl)-3-(4-trifluoromethyl-phenyl)-acrylamide]	176
CC(C)CCN1CCCCC(N(Cc2ccc(N(C)c3ccncc3)cc2)C(=O)/C=C/c2ccc(C(F)(F)F)cc2)C1 (racemic) [Example 72, (±)-(E)-N-(1-isopentylazepan-3-yl)-N-(4-(methyl(pyridin-4-yl)amino)benzyl)-3-(4-(trifluoromethyl)phenyl)acrylamide]	152
CN(C)CCN1CCC(N(Cc2ccc(N(C)c3ccncc3)cc2)C(=O)/C=C/c2ccc(C(F)(F)F)cc2)CC1 [Example 195, (E)-N-[1-(2-Dimethylamino-ethyl)-piperidin-4-yl]-N-[4-(methyl-pyridin-4-yl-amino)-benzyl]-3-(4-trifluoromethyl-phenyl)-acrylamide formate]	57
CCN1CCC[C@H](N(Cc2ccc(N(C)c3ccncc3)cc2)C(=O)/C=C/c2ccc(C(F)(F)F)cc2)C1 [Example 82, (E)-N-((S)-1-Ethyl-piperidin-3-yl)-N-[4-(methyl-pyridin-4-yl-amino)-benzyl]-3-(4-trifluoromethyl-phenyl)-acrylamide]	140
CN1CCC(N2CCC(N(Cc3ccc(Nc4ccncc4)nc3)C(=O)/C=C/c3ccc(C(F)(F)F)cc3)CC2)CC1 [Example 110, (E)-N-(1′-Methyl-[1,4′]bipiperidinyl-4-yl)-N-[6-(pyridin-4-ylamino)-pyridin-3-ylmethyl]-3-(4-trifluoromethyl-phenyl)-acrylamide]	171
CN1CCC(N(C)c2ccc(CN(C(=O)/C=C/c3ccc(OC(F)(F)F)cc3)C3CCN(Cc4ccccc4)CC3)cc2)CC1 [Example 178, (E)-N-(1-Benzyl-piperidin-4-yl)-N-{4-[methyl-(1-methyl-piperidin-4-yl)-amino]-benzyl}-3-(4-trifluoromethoxy-phenyl)-acrylamide]	343
Cc1cc(Nc2ccc(CN(C(=O)/C=C/c3ccc(Cl)cc3)C3CCN(C4CC4)CC3)cc2)ccn1 [Example 210, (E)-3-(4-Chloro-phenyl)-N-(1-cyclopropyl-piperidin-4-yl)-N-[4-(2-methyl-pyridin-4-ylamino)-benzyl]-acrylamide]	174
CN(c1ccncc1)c1ccc(CN(C(=O)/C=C/c2ccc(C(F)(F)F)cc2)C2CCN(Cc3cncn3C)CC2)cc1 [Example 19, (E)-N-[1-(3-Methyl-3H-imidazol-4-ylmethyl)-piperidin-4-yl]-N-[4-(methyl-pyridin-4-yl-amino)-benzyl]-3-(4-trifluoromethyl-phenyl)-acrylamide]	54
CN(c1ccncc1)c1ccc(CN(C(=O)/C=C/c2ccc(OC(F)F)cc2)C2CCN(Cc3ccccc3)CC2)cc1 [Example 145, (E)-N-(1-Benzyl-piperidin-4-yl)-3-(4-difluoromethoxy-phenyl)-N-[4-(methyl-pyridin-4-yl-amino)-benzyl]-acrylamide]	69

More lines, now with the values ahead:

IC50 [nM]	SMILES
49	CN(c1ccncc1)c1ccc(CN(C(=O)/C=C/c2ccc(C(F)(F)F)cc2)[C@H]2CC[C@H](N3CCCC3)CC2)cc1 [Example 193, (±)-trans-(E)-N-[4-(Methyl-pyridin-4-yl-amino)-benzyl]-N-(4-pyrrolidin-1-yl-cyclohexyl)-3-(4-trifluoromethyl-phenyl)-acrylamide]
44	O=C(/C=C/c1ccc(C(F)(F)F)cc1)N(Cc1ccc(Nc2ccncc2)nc1)C1CCN(C2CCCC2)CC1 [Example 103, (E)-N-(1-Cyclopentyl-piperidin-4-yl)-N-[6-(pyridin-4-ylamino)-pyridin-3-ylmethyl]-3-(4-trifluoromethyl-phenyl)-acrylamide]
39	CN1CCC(N2CCC(N(Cc3ccc(N(C)c4ccncc4)nc3)C(=O)/C=C/c3ccc(C(F)(F)F)cc3)CC2)CC1 [Example 112, (E)-N-(1′-Methyl-[1,4′]bipiperidinyl-4-yl)-N-[6-(methyl-pyridin-4-yl-amino)-pyridin-3-ylmethyl]-3-(4-trifluoromethyl-phenyl)-acrylamide]
21	CN1CCC(N2CCC(N(Cc3ccc(N(C)c4ccncc4)cc3)C(=O)/C=C/c3ccc(Cl)cc3)CC2)CC1 [Example 180, (E)-3-(4-Chloro-phenyl)-N-(1′-methyl-[1,4′]bipiperidinyl-4-yl)-N-[4-(methyl-pyridin-4-yl-amino)-benzyl]-acrylamide]
21	Cc1cc(Nc2cccc(CN(C(=O)/C=C/c3ccc(C(F)(F)F)cc3)C3CCN(C(C)C)CC3)n2)ccn1 [Example 129, (E)-N-(1-Isopropyl-piperidin-4-yl)-N-[6-(2-methyl-pyridin-4-ylamino)-pyridin-2-ylmethyl]-3-(4-trifluoromethyl-phenyl)-acrylamide formate]
16	CN1CCC(N2CCC(CN(Cc3ccc(N(C)c4ccncc4)cc3)C(=O)/C=C/c3ccc(C(F)(F)F)cc3)CC2)CC1 [Example 187, (E)-N-(1′-Methyl-[1,4′]bipiperidinyl-4-ylmethyl)-N-[4-(methyl-pyridin-4-yl-amino)-benzyl]-3-(4-trifluoromethyl-phenyl)-acrylamide]
14	CN(c1ccncc1)c1ccc(CN(C(=O)/C=C/c2ccc(C(F)(F)F)cc2)C2CCN(CC3CC4C=CC3C4)CC2)cc1 (stereo not drawn) [Example 10, (E)-N-(1′-Bicyclo[2.2.1]hept-5-en-2-ylmethyl-piperidin-4-yl)-N-[4-(methyl-pyridin-4-yl-amino)-benzyl]-3-(4-trifluoromethyl-phenyl)-acrylamide]
13	Cc1cc(Nc2ccc(CN(C(=O)/C=C/c3ccc(C(F)(F)F)cc3)C3CCN(C4CCCC4)CC3)cc2)ccn1 [Example 95, (E)-N-(1-Cyclopentyl-piperidin-4-yl)-N-[4-(2-methyl-pyridin-4-ylamino)-benzyl]-3-(4-trifluoromethyl-phenyl)-acrylamide]
12	Cc1cc(Nc2ccc(CN(C(=O)/C=C/c3ccc(C(F)(F)F)cc3)C3CCN(Cc4ccc(O)c(CN(C)C)c4)CC3)cc2)ccn1 [Example 53, (E)-N-[1-(3-Dimethylaminomethyl-4-hydroxy-benzyl)-piperidin-4-yl]-N-[4-(2-methyl-pyridin-4-ylamino)-benzyl]-3-(4-trifluoromethyl-phenyl)-acrylamide]
12	CN1CCC(N2CCC[C@H](N(Cc3ccc(N(C)c4ccncc4)cc3)C(=O)/C=C/c3ccc(C(F)(F)F)cc3)C2)CC1 [Example 55, (S,E)-N-(4-(methyl(pyridin-4-yl)amino)benzyl)-N-(1′-methyl-[1,4′-bipiperidin]-3-yl)-3-(4-(trifluoromethyl)phenyl)acrylamide]
